According to US20040266885A1, “Wood preservative compositions” (priority 2001, published 2004):
Where “and” joins values, the source holds several entries; their conditions need not be identical. Identical values can stand only once. Entries after “also recorded” stand apart in the source; their conditions may differ. Like-named read-outs stand apart in the source and are kept apart here.

Tested on: Coptotermes formosanus
Conditions: for Surface Activity (termites on the surface of the soil) / Tunneling Activity / Visible Mortality / repellent effect on termites (surface activity data) / termite mortality by the end of the incubation period / toxic value, lower (concentration at which the wood is no longer sufficiently protected) / toxic value, upper (lowest concentration which protects the wood) / Mean Rating (termite attack) / Termite Attack Rating: ethanol carrier; for reduction in termite attack: concentrated solutions, followed by leaching; for termite mortality by the end of the incubation period: higher concentrations; for toxic value, lower (concentration at which the wood is no longer sufficiently protected) / toxic value, upper (lowest concentration which protects the wood): mean loading, leached; for toxic value, lower (concentration at which the wood is no longer sufficiently protected): solution concentration 5%; for toxic value, upper (lowest concentration which protects the wood): solution concentration 7%; for Mean Rating (termite attack): mean of 4 specimens; for Mean Rating (termite attack) / Termite Attack Rating: 4 weeks sand culture; for Termite Attack Rating: single specimen
Text: A laboratory test was undertaken to determine the toxic values of novel actives against termites. The active materials used were TBBA, TBBE [4,4′-ethylidenebis(2,6-dibromophenol)] [CAS RN=12639-25-3] (Sample Number 1392-82-03); TBBZ [4,4′-cyclohexylidene(2,6-dibromophenol)] [CAS RN=53350-96-2] (Sample Number 1392-72-03) and TBA, 2,2′,6-tribromo-4,4′-isopropylidenediphenol, CAS 6386-73-8 (Sample Number 1392-75-03).
The test was undertaken largely according to the strictures laid down in ASTM 3345-74 (the American standard laboratory test to assess the termite resistant properties of wood to wood destroying termites). The test method allows for the exposure of treated buried wood blocks to termites (Reticulitermes or Coptotermes spp.) over a period of 4 weeks. Efficacy of the product is determined by the extent of termite damage to the treated timber specimens through a scoring system. The test was slightly modified from the standard ASTM test by reducing the number of replicate wood specimens from 5 to 4.
Score 1: Attempted attack
The toxic values of the preservative product (in kg/m^3 of wood) fall between two values as follows:
1) The lowest concentration which protects the wood (i.e. the concentration at which none of the test specimens show a degree of attack greater than 1).
The termites employed were Coptotermes formosanus.
All wood bock specimens were of Southern Yellow Pine sapwood (Pinus spp.) with dimensions of 25.4×25.4×6.4 mm in accordance with ASTM D3345-74. All blocks were vacuum impregnated with the relevant solutions in accordance with ASTM D3345-74. Distribution of blocks in the test was as follows:
The test specimens were conditioned and subjected to a leaching schedule (after vacuum impregnation) as stipulated in ASTM D1413-76 (as recommended in ASTM D3345-74). All test specimens were then air dried for two weeks to constant weight.
The specimens were each positioned at the base of a 500 ml polyethylene culture jar (numbered according to each test specimen) and covered with 200 g of sand (pre-washed, sterilised and air conditioned in the laboratory) to which was added 25 g of de-ionised water. A further two containers containing watered sand but no timber were also prepared. All the jars were sealed (lids pre-pierced and covered with stainless steel mesh for aeration).
Two days after specimen placement, 200 termites were added to each culture jar (90% workers and 10% soldiers) and the jars re-sealed. The jars were incubated at a mean temperature and relative humidity of 27.5° C. and 75-90% for 4 weeks. The containers were provided with an artificial lighting regime of 10 hours light and 14 hours darkness.
After 1 week and 4 weeks each container was examined to determine termite mortality and normal tunneling behaviour patterns as follows:
Is there tunneling present: YES/NO
Are there any termites on the surface of the soil: YES/NO (if yes how many, i.e. 1-25% of pop, 26-50% of pop, 51-100% of pop.)
Are any dead termites visible: YES/NO (if yes how many, 1-33%, 34-66%, 67-100%)
After 4 weeks the test specimens were removed and cleaned of debris. Each block was examined and visually rated for termite damage using the scoring system detailed above.
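Wherever Termite Attack Rating is given: score 0 no attack 2 slight 3 average 4 strong attack.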

Question: What does the source list for CC(c1cc(Br)c(O)c(Br)c1)c1cc(Br)c(O)c(Br)c1 [TBBE, 4,4′-ethylidenebis(2,6-dibromophenol)]?
Answer: Surface Activity (termites on the surface of the soil) (1 week, solution conc. 1%): No/No; Tunneling Activity (1 week, solution conc. 1%): Yes/Yes; Visible Mortality (1 week, solution conc. 1%): No/No; Surface Activity (termites on the surface of the soil) (1 week, solution conc. 3%): No/No; Tunneling Activity (1 week, solution conc. 3%): Yes/Yes; Visible Mortality (1 week, solution conc. 3%): No; Surface Activity (termites on the surface of the soil) (1 week, solution conc. 5%): No/No; Tunneling Activity (1 week, solution conc. 5%): Yes/Yes; Visible Mortality (1 week, solution conc. 5%): No; Surface Activity (termites on the surface of the soil) (1 week, solution conc. 7%): 1-25%/1-25% (of % (of pop.); Tunneling Activity (1 week, solution conc. 7%): Yes/Yes; Surface Activity (termites on the surface of the soil) (1 week, solution conc. 10%): 1-25%/1-25% (of % (of pop.); Tunneling Activity (1 week, solution conc. 10%): Yes/Yes; Visible Mortality (1 week, solution conc. 10%): No; Surface Activity (termites on the surface of the soil) (4 weeks, solution conc. 1%): No/No; Tunneling Activity (4 weeks, solution conc. 1%): Yes/Yes; Visible Mortality (4 weeks, solution conc. 1%): No/No; Surface Activity (termites on the surface of the soil) (4 weeks, solution conc. 3%): No/No; Tunneling Activity (4 weeks, solution conc. 3%): Yes/Yes; Visible Mortality (4 weeks, solution conc. 3%): 1-33 % (of pop.); Surface Activity (termites on the surface of the soil) (4 weeks, solution conc. 5%): No/No; Tunneling Activity (4 weeks, solution conc. 5%): Yes/Yes; Surface Activity (termites on the surface of the soil) (4 weeks, solution conc. 7%): 1-25%/1-25% (of % (of pop.); Tunneling Activity (4 weeks, solution conc. 7%): Yes/Yes; Visible Mortality (4 weeks, solution conc. 7%): 67-100 % (of pop.); Surface Activity (termites on the surface of the soil) (4 weeks, solution conc. 10%): 1-25%/1-25% (of % (of pop.); Tunneling Activity (4 weeks, solution conc. 10%): Yes/Yes; Visible Mortality (4 weeks, solution conc. 10%): 67-100 % (of pop.); reduction in termite attack: a significant reduction in termite attack; repellent effect on termites (surface activity data): a degree of termite repellency; also recorded: a repellent effect at certain stages of the incubation period; also recorded: a repellent effect early in the incubation period at higher concentrations; termite mortality by the end of the incubation period: significant termite mortality; toxic value, lower (concentration at which the wood is no longer sufficiently protected) (4 weeks): 28.53 kg/m^3; toxic value, upper (lowest concentration which protects the wood) (4 weeks): 35.93 kg/m^3; Mean Rating (termite attack) (solution conc. 1%): 3.00; Termite Attack Rating (solution conc. 1%): 3; Mean Rating (termite attack) (solution conc. 3%): 2.00; Termite Attack Rating (solution conc. 3%): 2 and 3 and 1; Mean Rating (termite attack) (solution conc. 5%): 1.50; Termite Attack Rating (solution conc. 5%): 2 and 1; Mean Rating (termite attack) (solution conc. 7%): 1.00; Termite Attack Rating (solution conc. 7%): 1; Mean Rating (termite attack) (solution conc. 10%): 1.25; Termite Attack Rating (solution conc. 10%): 1 and 2

Question: What does the source list for CC(C)(c1ccc(O)c(Br)c1)c1cc(Br)c(O)c(Br)c1 [TBA, 2,2′,6-tribromo-4,4′-isopropylidenediphenol]?
Answer: Surface Activity (termites on the surface of the soil) (1 week, solution conc. 1%): No/No; Tunneling Activity (1 week, solution conc. 1%): Yes/Yes; Visible Mortality (1 week, solution conc. 1%): No/No; Surface Activity (termites on the surface of the soil) (1 week, solution conc. 3%): No/No; Tunneling Activity (1 week, solution conc. 3%): Yes/Yes; Visible Mortality (1 week, solution conc. 3%): No; Surface Activity (termites on the surface of the soil) (1 week, solution conc. 5%): No/No; Tunneling Activity (1 week, solution conc. 5%): Yes/Yes; Visible Mortality (1 week, solution conc. 5%): No; Surface Activity (termites on the surface of the soil) (1 week, solution conc. 7%): No/No; Tunneling Activity (1 week, solution conc. 7%): Yes/Yes; Visible Mortality (1 week, solution conc. 7%): No; Surface Activity (termites on the surface of the soil) (1 week, solution conc. 10%): No/No; Tunneling Activity (1 week, solution conc. 10%): Yes/Yes; Visible Mortality (1 week, solution conc. 10%): No; Surface Activity (termites on the surface of the soil) (4 weeks, solution conc. 1%): No/No; Tunneling Activity (4 weeks, solution conc. 1%): Yes/Yes; Visible Mortality (4 weeks, solution conc. 1%): No/No; Surface Activity (termites on the surface of the soil) (4 weeks, solution conc. 3%): No/No; Tunneling Activity (4 weeks, solution conc. 3%): Yes/Yes; Visible Mortality (4 weeks, solution conc. 3%): 1-33 % (of pop.); Surface Activity (termites on the surface of the soil) (4 weeks, solution conc. 5%): No/No; Tunneling Activity (4 weeks, solution conc. 5%): Yes/Yes; Visible Mortality (4 weeks, solution conc. 5%): 34-66 % (of pop.); Surface Activity (termites on the surface of the soil) (4 weeks, solution conc. 7%): No/No; Tunneling Activity (4 weeks, solution conc. 7%): Yes/Yes; Visible Mortality (4 weeks, solution conc. 7%): 34-66 % (of pop.); Surface Activity (termites on the surface of the soil) (4 weeks, solution conc. 10%): No/No; Tunneling Activity (4 weeks, solution conc. 10%): Yes/Yes; Visible Mortality (4 weeks, solution conc. 10%): 34-66 % (of pop.); reduction in termite attack: a significant reduction in termite attack; repellent effect on termites (surface activity data): no repellent effect; termite mortality by the end of the incubation period: 34-66%; toxic value, lower (concentration at which the wood is no longer sufficiently protected) (4 weeks): 30.17 kg/m^3; toxic value, upper (lowest concentration which protects the wood) (4 weeks): 41.22 kg/m^3; Mean Rating (termite attack) (solution conc. 1%): 3.00; Termite Attack Rating (solution conc. 1%): 3 and 2 and 4; Mean Rating (termite attack) (solution conc. 3%): 1.75; Termite Attack Rating (solution conc. 3%): 2 and 1; Mean Rating (termite attack) (solution conc. 5%): 1.75; Termite Attack Rating (solution conc. 5%): 2 and 1; Mean Rating (termite attack) (solution conc. 7%): 1.00; Termite Attack Rating (solution conc. 7%): 1; Mean Rating (termite attack) (solution conc. 10%): 1.00; Termite Attack Rating (solution conc. 10%): 1
